Where two headings read alike, the source gives them in different places.
Legend:
[1] = system: EFS-induced isolated detrusor muscle contractions; test: EFS-induced contraction of isolated rat detrusor muscle strips, with isobologram analysis; set-up: species or system Sprague-Dawley rats; details: single compound, rat bladder strips, EFS
Description: Male adult Sprague-Dawley rats were used. After euthanizing using CO2 gas, a whole bladder was removed. Longitudinal strips (about 6 mm×3 mm) of the extratrigonal portion of the detrusor muscle were prepared. […] The strips were tied at one end to the organ bath, and connected at the other end to an isometric transducer (AD Instruments) under a resting tension of 10 mN. The responses of the preparations were recorded at a sampling rate of 10 Hz by a multiple channel data acquisition system (PowerLab, AD Instruments), and measured with an analysis software (Chart, AD Instruments). After the equilibration period for at least 60 min, each tissue strip was challenged to electrical field stimulation (EFS) at 60 Hz; duration, 0.3 ms; 3 sec; 90 V to induce contractions. Upon obtaining stable contractions with EFS, compound solution (25 μL) was applied into organ bath in a cumulative manner. After 15 min of each compound treatment, EFS was applied.
Isobologram Analysis was used to evaluate the synergic effect of a combination therapy. Isobologram Analysis provides a visual assessment of the interaction of two different agents using independent statistical analysis. The statistical analysis can be accomplished from calculations of certain potency indices from single treatment of each compound and fixed-ratio combinations for the same effect.
Isobologram for some particular effect (e.g., 50% of the maximum) in which the dose of active agent A alone is A=20 and active agent B alone is B=100. The straight line connecting these intercept points (additivity line) is the locus of all dose pairs that, based on these potencies, should give the same effect, An actual dose pair such as point Q attains this effect with lesser quantities and is synergistic (or super-additive), while the dose pair denoted by point R means greater quantities are required and is therefore sub-additive.

[2] = system: distention-induced rhythmic bladder contraction; test: Distention-induced rhythmic bladder contraction in anesthetized female rats; assay type: in vivo, SD rats; details: iv, single dosing, urethane-anesthetized female rats
Description: • OXY, 0.01, 0.03, 0.1 mg/kg, iv; […].
Next, combination dosing regimens shown below in Table 7 were conducted to compose an isobologram. There were 9 groups in total. ID20 values of OXY and CL was calculated in each combination rate.

muscarinic receptor M1 [3] = molecular target: T1, muscarinic receptor M1 (Homo sapiens, UniProt P11229); details: read-out: Ki (nM) M1, cited from earlier work
T1 sequence (P11229 1-460): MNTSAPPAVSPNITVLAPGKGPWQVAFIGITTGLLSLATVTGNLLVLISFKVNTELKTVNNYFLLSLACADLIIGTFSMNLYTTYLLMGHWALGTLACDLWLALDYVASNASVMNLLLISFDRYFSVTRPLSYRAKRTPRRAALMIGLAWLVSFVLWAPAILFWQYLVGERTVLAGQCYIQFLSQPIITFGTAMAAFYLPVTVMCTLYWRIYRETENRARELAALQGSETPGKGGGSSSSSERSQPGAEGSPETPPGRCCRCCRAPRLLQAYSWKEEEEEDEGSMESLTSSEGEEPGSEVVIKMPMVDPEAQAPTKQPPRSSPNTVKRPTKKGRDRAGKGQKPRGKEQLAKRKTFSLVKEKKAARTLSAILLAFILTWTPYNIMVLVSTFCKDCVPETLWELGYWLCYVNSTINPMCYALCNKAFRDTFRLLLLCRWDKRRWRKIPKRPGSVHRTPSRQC

muscarinic receptor M2 [4] = molecular target: T2, muscarinic receptor M2 (Homo sapiens, UniProt P08172); details: Ohtake et al.; cited from earlier work
T2 sequence (P08172 1-466): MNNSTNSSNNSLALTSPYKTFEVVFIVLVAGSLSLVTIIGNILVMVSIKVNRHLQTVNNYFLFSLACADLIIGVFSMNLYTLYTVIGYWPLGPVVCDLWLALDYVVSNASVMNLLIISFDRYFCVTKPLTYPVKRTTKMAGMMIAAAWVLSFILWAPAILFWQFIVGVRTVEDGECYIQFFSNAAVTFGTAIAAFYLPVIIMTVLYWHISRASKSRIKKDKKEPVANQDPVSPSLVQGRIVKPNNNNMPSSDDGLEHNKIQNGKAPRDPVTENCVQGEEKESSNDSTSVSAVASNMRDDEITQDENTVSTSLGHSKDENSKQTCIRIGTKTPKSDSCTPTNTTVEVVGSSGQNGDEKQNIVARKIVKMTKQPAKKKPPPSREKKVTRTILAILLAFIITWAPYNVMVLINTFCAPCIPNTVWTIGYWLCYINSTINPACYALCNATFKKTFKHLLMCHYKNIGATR

muscarinic receptor M3 [5] = molecular target: T3, muscarinic receptor M3 (Homo sapiens, UniProt P20309); details: cited from earlier work
muscarinic receptor M4 = molecular target: T4, muscarinic receptor M4 (Homo sapiens, UniProt P08173); details: Ohtake et al.; cited from earlier work
T4 sequence (P08173 1-479): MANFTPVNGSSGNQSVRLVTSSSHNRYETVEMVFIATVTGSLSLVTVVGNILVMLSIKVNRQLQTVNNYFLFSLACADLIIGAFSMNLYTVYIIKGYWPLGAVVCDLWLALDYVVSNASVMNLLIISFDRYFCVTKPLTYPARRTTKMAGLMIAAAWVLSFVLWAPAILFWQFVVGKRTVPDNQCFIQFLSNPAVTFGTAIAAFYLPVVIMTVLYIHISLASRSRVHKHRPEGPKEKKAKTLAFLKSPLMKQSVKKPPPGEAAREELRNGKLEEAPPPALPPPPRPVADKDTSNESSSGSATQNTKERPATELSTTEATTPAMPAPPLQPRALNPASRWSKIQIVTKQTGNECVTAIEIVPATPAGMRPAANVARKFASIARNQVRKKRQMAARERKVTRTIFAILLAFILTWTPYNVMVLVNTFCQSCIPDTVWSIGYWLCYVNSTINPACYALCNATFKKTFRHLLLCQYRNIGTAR

bladder capacity = test: Bladder capacity (cystometry) in anesthetized rhesus monkeys; assay type: in vivo, rhesus monkeys (Macaca mulatta); details: mean of 4-6 animals
From the text: Adult female rhesus monkeys (Macaca mulatta) weighed 5.3-6.2 kg (4-7 year-old) were used. The subjects were either paired or individually housed on a 12-h light/12-h dark cycle (lights on at 7:00 AM). Their diet consisted of 2050 Teklad (Harlan Laboratories, Indianapolis, Ind.) and fresh fruit or vegetable. Water was freely available. All animals were observed daily by a veterinary technician and caretakers for signs of ill health. Subjects were repeatedly used with >13-day resting period. Monkeys were anesthetized with an intramuscular injection of either Telazol (3-5 mg/kg) or ketamine (10-20 mg/kg) followed by intravenous constant rate infusion with ketamine (0.2-0,8 mg/kg/min) using a syringe pump (552222, Harvard Apparatus, Holliston, Mass.). Animals were placed in a supine position and a triple lumen balloon transurethral catheter (7.4 Fr, Cook Medical, Bloomington, Ind.) was inserted into the bladder and the balloon was inflated with 1 mL of water to secure the tip of catheter at the bladder base. The catheter was connected with an infusion pump (Gemini PC-2TX, ALARIS Medical Systems, San Diego, Calif.) for bladder filling and a pressure transducer for intravesical pressure monitoring. Intravesical pressure was continuously recorded using a multiple channel data acquisition system (Power lab, AD Instruments, Biopac systems, Colorado Springs, Colo.) at a sampling rate of 20 Hz. After confirming bladder emptiness by an ultrasonography (Logiq e vet, GE Medical Systems, Waukesha, Wis., FIG. 1A), saline was intravesically infused at 15 mL/min. When the steep rise in pressure indicative of the micturition reflex was observed, intravesical infusion was stopped and the bladder was manually emptied with a 60 ml syringe.
After two baseline cystometry readings, drug was intravenously administered three times using a rising dose paradigm with a cystometry performed 10 min after each dose. Bladder capacity was measured for each cystometry and % change from the baseline capacity was calculated. As used herein, the term “baseline capacity” or “baseline” means the average bladder capacity from two pre-dose measurements.
The reported results are mean values of % change from baseline in 4-6 animals.

muscarinic receptor M1 [6] = molecular target: T1, muscarinic receptor M1; details: Hegde et al.; cited from earlier work
muscarinic receptor M2 [7] = molecular target: T2, muscarinic receptor M2; details: Hegde et al.; cited from earlier work
muscarinic receptor M3 [8] = molecular target: T3, muscarinic receptor M3; details: Hegde et al.; cited from earlier work

T3 sequence (P20309 whole entry): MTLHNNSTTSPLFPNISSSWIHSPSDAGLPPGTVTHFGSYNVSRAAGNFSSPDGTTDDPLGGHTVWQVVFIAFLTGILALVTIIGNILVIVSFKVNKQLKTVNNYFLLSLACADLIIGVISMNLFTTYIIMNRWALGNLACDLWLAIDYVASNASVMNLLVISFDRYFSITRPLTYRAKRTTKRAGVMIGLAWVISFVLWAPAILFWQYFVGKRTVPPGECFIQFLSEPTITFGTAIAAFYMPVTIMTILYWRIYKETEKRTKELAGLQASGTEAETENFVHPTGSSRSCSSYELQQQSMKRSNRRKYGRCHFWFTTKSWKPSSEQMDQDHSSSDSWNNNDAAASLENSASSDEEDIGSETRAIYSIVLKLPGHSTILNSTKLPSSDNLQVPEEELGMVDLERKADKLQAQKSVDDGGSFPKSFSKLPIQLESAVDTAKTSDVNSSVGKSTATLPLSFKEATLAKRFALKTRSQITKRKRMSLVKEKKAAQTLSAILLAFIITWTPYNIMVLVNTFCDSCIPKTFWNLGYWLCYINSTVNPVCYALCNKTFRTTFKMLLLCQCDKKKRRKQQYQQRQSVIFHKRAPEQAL

Structure (SMILES): C[C@H](Cc1ccc2c(c1)OC(C(=O)[O-])(C(=O)[O-])O2)NC[C@H](O)c1cccc(Cl)c1.[Na+].[Na+] [CL316243, disodium (R,R)-5-(2-((2-(3-ehlorophenyl)-2-hydroxyethyl)-amino)propyl)-1,3-benzodioxole-2,3-dicarboxylate]
- IC25 (concentration which induced 25% inhibition of detrusor contraction) [1]: 2.86 nM
- ID20 (dose decreasing amplitude by 20%) [2]: 0.024 MPK

Structure (SMILES): CCN(CC)CC#CCOC(=O)C(O)(c1ccccc1)C1CCCCC1 (centres unmarked) [Oxybutynin, 4-diethylaminobut-2-ynyl2-cyclohexyl-2-hydroxy-2-phenyl-ethanoate]
- ID20 (dose decreasing amplitude by 20%) [2]: 0.057 MPK

Structure (SMILES): CCCOC(C(=O)OC1CCN(C)CC1)(c1ccccc1)c1ccccc1 [Propiverine]
- Ki (muscarinic receptor M1 [3]; Ohtake et al.): 490 ± 110 nM
- Ki (muscarinic receptor M2 [4]): 1400 ± 220 nM
- Ki (muscarinic receptor M3 [5]; Ohtake et al.): 350 ± 53 nM
- M2/M3 ratio (muscarinic receptor M3 [5]; Ohtake et al., ratio of Ki M2 to Ki M3): 4
- Ki (muscarinic receptor M4): 900 ± 200 nM

Structure (SMILES): O=C(O[C@H]1CN2CCC1CC2)N1CCc2ccccc2[C@@H]1c1ccccc1 [Solifenacin]
- Ki (muscarinic receptor M1 [3]): 26 ± 2 nM
- Ki (muscarinic receptor M2 [4]): 170 ± 37 nM
- Ki (muscarinic receptor M3 [5]; Ohtake et al.): 12 ± 4.4 nM
- M2/M3 ratio (muscarinic receptor M3 [5]): 14
- Ki (muscarinic receptor M4): 110 ± 45 nM

Structure (SMILES): Cc1ccc(O)c([C@@H](CCN(C(C)C)C(C)C)c2ccccc2)c1 [Tolterodine, 2-[(1S)-3-(diisopropylamino)-1-phenylpropyl]-4-methylphenol]
- IC25 (concentration which induced 25% inhibition of detrusor contraction) [1]: 4.71 nM
- Bladder capacity, % change from baseline (bladder capacity; mono-therapy 0.01 mg/kg iv, listed as TOL): 8.6%
- Bladder capacity, % change from baseline (bladder capacity; mono-therapy 0.03 mg/kg iv, listed as TOL): 16.8%
- Bladder capacity, % change from baseline (bladder capacity; mono-therapy 0.1 mg/kg iv): 40.3%
- Ki (muscarinic receptor M1 [3]): 2.7 ± 0.23 nM
- Ki (muscarinic receptor M4): 6.6 ± 1.7 nM

Structure (SMILES): O=C(O[C@H]1C[C@H]2CC[C@@H](C1)[N+]21CCCC1)C(O)(c1ccccc1)c1ccccc1 [Trospium]
- Ki (muscarinic receptor M1 [6]): 0.75 nM
- Ki (muscarinic receptor M2 [7]): 0.65 nM
- Ki (muscarinic receptor M3 [8]): 0.5 nM
- M2/M3 ratio (muscarinic receptor M3 [8]): 1

Source: patent US20120202819A1, “COMBINATION THERAPY USING A BETA 3 […] RECEPTOR AGONISTS AND AN […] AGENT” (Merck Sharp & Dohme Corporation, priority 2009, published 2012)
